Experimental data published in patent US20210070718A1, “NOVEL PHENYLSULFONYL OXAZOLE DERIVATIVE AND USE THEREOF” (priority 2018, published 2021).

How the values were obtained:
Type in all cases: in vivo
APP/PS1 mouse [1] = assay: Morris water maze (MWM) test; details: 50 mg/kg intraperitoneally 3 times a week for 2 months, FIGS. 5A to 5C
Description: (§1) A mouse experiment was approved by the Kyungpook National University Institutional Animal Care and Use Committee (IACUC). As an animal model of neurodegenerative disease (particularly, Alzheimer's disease), a transgenic mouse line overexpressing APPswe (hAPP695swe) and PS1 (presenilin-1M146V) based on a C57BL/6 mouse (Charles River, UK) was used. [hereinafter, APP/PS1 mouse (denoted by AD), GlaxoSmithKline Co., Ltd.]
(§2) To confirm a therapeutic effect of the autophagy enhancing compound obtained in <Example 1>, an experimental substance was administered to the animal model according to the experimental outline (schedule) illustrated in FIG. 1. Specifically, PBS or the autophagy enhancing compound was intraperitoneally injected into a 6.5-month-old mouse 3 times a week at a dose of 50 mg/kg. After two months of the injection of the autophagy enhancing compound, behavioral analysis was performed, and the brain tissue of the mouse was used as a sample after the behavioral analysis (i.e., at 9.5 […] of mouse) (see FIG. 1).
(§3) In order to confirm potential effects on learning and memory, Morris water maze (MWM) and fear conditioning tests were performed. In the MWM, the mouse learned a task 4 times a day for 10 days, a platform was removed on day 11, and a probe trial was performed. […]

APP/PS1 mouse [2] = assay: Amyloid-β and tau deposition by thioflavin S / immunofluorescence staining in brain cortex and hippocampus; details: 50 mg/kg intraperitoneally 3 times a week for 2 months, compared to APP/PS1 mouse (PBS)
Description: as §1, §2
(§4) After immobilization of the mouse's cerebrum and hippocampus, 0.5% thioflavin S (Sigma-Aldrich), anti-20G10 against Aβ42 (mouse, 1:1000) and anti-G30 against A1340 (rabbit, 1:1000), anti-GFAP (rabbit, 1:500, DAKO) and anti-Iba-1 (rabbit, 1:500, WAKO) were incubated together. The sites were analyzed using a confocal laser scanning microscope or an Olympus BX51 microscope equipped with Fluoview SV1000 imaging software (Olympus FV1000, Japan). A percentage of an area of a stained area to an area of total tissues was quantified and analyzed by using Metamorph software (Molecular Devices).
In order to determine whether the aforementioned autophagy enhancing compound had effects for prevention and treatment on neurodegenerative disease, the effect of the compound on an Alzheimer's model was representatively evaluated.
First, an amyloid-β (Aβ) profile of an Alzheimer's lesion and the deposition degree of tau protein were confirmed. First, the cerebral cortex and hippocampus regions of the mouse were stained with thioflavin S (ThioS) according to a known method to confirm the deposition degree of fibrillar amyloid-β. In addition, immunofluorescence staining of Aβ40, Aβ42, and AT8 was performed to confirm the deposition degree of amyloid-β and tau protein.

APP/PS1 mouse [3] = assay: Fear conditioning test; details: 50 mg/kg intraperitoneally 3 times a week for 2 months, FIG. 5D
Description: as §1, §2, §3

APP/PS1 mouse [4] = assay: Real-time quantitative PCR of inflammatory cytokines in brain tissue; details: 50 mg/kg intraperitoneally 3 times a week for 2 months, brain mRNA, FIG. 6C
Description: as §1, §2
A real-time quantitative PCR method was used to measure the expression levels of inflammatory response-related cytokines (TNF-α, IL-1β, and IL-6). Total RNA was extracted from the brain tissue using an RNeasy Plus mini kit (Qiagen, Korea, Ltd), and cDNA was synthesized from a total of 5 μg of RNA using a kit from Clontech (Mountain View, Calif.). In addition, by using a Corbett research RG-6000 real-time PCR instrument, real-time quantitative PCR was performed by setting 95° C., 10 minutes; 95° C., 10 seconds; and 58° C., 15 seconds as one cycle and repeating 40 cycles.

APP/PS1 mouse [5] = assay: Astrocyte (GFAP) and microglia (Iba-1) immunofluorescence in brain; details: 50 mg/kg intraperitoneally 3 times a week for 2 months, compared with APP/PS1 mouse
Description: as §1
To confirm a therapeutic effect of the autophagy enhancing compound obtained in <Example 1>, an experimental substance was administered to the animal model according to the experimental outline (schedule) illustrated in FIG. 1. Specifically, PBS or the autophagy enhancing compound was intraperitoneally injected into a 6.5-month-old mouse 3 times a week at a dose of 50 mg/kg. […]
as §4, with “Devices). […]” for “Devices).”

APP/PS1 mouse [6] = assay: Western blotting of autophagy-related proteins in brain tissue
Description: as §1, §2
Expression of the following genes was analyzed using Western blotting. First, antibodies against LC3, beclin-1, and p62 [all, purchased from cell signaling Technologies], cathepsin D (R&D systems) and β-actin (Santa Cruz) were used, and density quantification was performed by using ImageJ software (US National Institutes of Health).
In order to confirm how the aforementioned autophagy enhancing compound (in particular, 5-methoxy-4-(phenylsulfonyl)-2-(4-(trifluoromethyl)phenyl)oxazole) actually act in an autophagy-related pathway in vivo, conversion of LC3-I to LC3-II, and expression levels of beclin-1, cathepsin D and p62 were confirmed through a Western blotting experiment in brain tissue samples of 9.5-month-old WT, APP/PS1 (untreated group), and an APP/PS1 mouse injected with the autophagy enhancing compound.

[7] = 9.5-month-old APP/PS1 mouse, 50 mg/kg intraperitoneally 3 times a week for 2 months, versus increased level in APP/PS1 mouse

COc1oc(-c2ccc(C(F)(F)F)cc2)nc1S(=O)(=O)c1ccccc1 [autophagy enhancing compound, 5-methoxy-4-(phenylsulfonyl)-2-(4-(trifluoromethyl)phenyl)oxazole]
impairment in spatial memory, cognition and memory formation (Morris water maze) (APP/PS1 mouse [1]): significantly improved | deposition of fibrillar Aβ (thioflavin S) (APP/PS1 mouse [2]; cerebral cortex and hippocampus, FIG. 2): significantly low | deposition of Aβ40 (APP/PS1 mouse [2]; cortex and hippocampus, FIG. 3A): significantly low | deposition of Aβ42 (APP/PS1 mouse [2]; cortex and hippocampus, FIG. 3B): significantly low | deposition of tau protein (AT8) (APP/PS1 mouse [2]; cortex and hippocampus, FIG. 4): significantly low | memory in fear conditioning test (contextual and tone tasks) (APP/PS1 mouse [3]): remarkable memory improvement effect | gene expression of inflammatory cytokine IL-1β (APP/PS1 mouse [4]): restored to a normal level | gene expression of inflammatory cytokine IL-6 (APP/PS1 mouse [4]): restored to a normal level | gene expression of inflammatory cytokine TNF-α (APP/PS1 mouse [4]): restored to a normal level | activity of astrocytes (GFAP) (APP/PS1 mouse [5]; FIG. 6A): significantly reduced | activity of microglia (Iba-1) (APP/PS1 mouse [5]; FIG. 6B): significantly reduced | level of LC3-II (APP/PS1 mouse [6]; 9.5-month-old APP/PS1 mouse, 50 mg/kg intraperitoneally 3 times a week for 2 months, FIG. 7): decreased to a level similar to WT | expression level of cathepsin D (APP/PS1 mouse [6]; [7]): decreased | expression level of p62 (APP/PS1 mouse [6]; [7]): decreased | expression of beclin-1 (APP/PS1 mouse [6]; 9.5-month-old WT, APP/PS1 and injected APP/PS1 mouse, FIG. 7): no large difference in the three groups
